Results: patent US20070015223A1, “Method of detecting substance to be analyzed” (OLYMPUS CORPORATION, priority 2003, published 2007)

Key:
[1] = tested on: genes to be analyzed in rat liver; experiment: microarray expression level ratio, tyramide reaction time adjusted by GAPDH spot signal intensity (Example 7, Table 1)
[2] = tested on: genes to be analyzed in rat liver; experiment: microarray expression level ratio, control experiment with fixed tyramide reaction time of 5 minutes (Table 3)
[3] = tested on: genes to be analyzed in rat liver; experiment: microarray expression level ratio, sample amount quantified and matched (Example 5, Table 2)
[4] = Phenobal group rat liver, aRNA 400 ng, Deposition Time 2 min.
[5] = rat liver, aRNA 400 ng vs 100 ng, Deposition Time 2 min. vs 7 min.
[6] = Phenobal group rat liver, aRNA 400 ng, Deposition Time 5 min.
[7] = rat liver, aRNA 400 ng vs 100 ng, Deposition Time 5 min. both, corrected using the internal standard gene
[8] = Phenobal group rat liver, aRNA 200 ng, Deposition Time 5 min.
[9] = rat liver, aRNA 200 ng both, Deposition Time 5 min. both

With CCC1(c2ccccc2)C(=O)NC(=O)NC1=O [Phenobal, phenobarbital] the “Raw Data (spot signal intensity), Gene A” value [1, 4] was 680, the “Raw Data (spot signal intensity), Gene B” value [1, 4] was 750 and the “Raw Data (spot signal intensity), Gene C” value [1, 4] was 250. The “Raw Data (spot signal intensity), Gene D” value [1, 4] was 2800, the “Raw Data (spot signal intensity), Gene E” value [1, 4] was 500 and the “Raw Data (spot signal intensity), Gene F” value [1, 4] was 60. For the same molecule, the “Raw Data (spot signal intensity), Gene GAPDH” value (shortened to “Raw Data … Gene GAPDH”) ([1]; internal standard gene, Phenobal group rat liver, aRNA 400 ng, Deposition Time 2 min.) was 2500, the “Ratio (Phenobal/Control), Gene GAPDH” value ([1]; internal standard gene, rat liver, aRNA 400 ng vs 100 ng, Deposition Time 2 min. vs 7 min.) was 1.0 and the “Ratio (Phenobal/Control), Gene A” value [1, 5] was 1.8. The “Ratio (Phenobal/Control), Gene B” value [1, 5] was 2.8, the “Ratio (Phenobal/Control), Gene C” value [1, 5] was 0.5 and the “Ratio (Phenobal/Control), Gene D” value [1, 5] was 1.9. For the same molecule, the “Ratio (Phenobal/Control), Gene E” value [1, 5] was 0.2, the “Ratio (Phenobal/Control), Gene F” value [1, 5] was 1.2 and the “Raw Data (spot signal intensity), Gene a” value [2, 6] was 1700. The “Raw Data (spot signal intensity), Gene b” value [2, 6] was 1875, the “Raw Data (spot signal intensity), Gene c” value [2, 6] was 625 and the “Raw Data (spot signal intensity), Gene d” value [2, 6] was 4095. The “Raw Data (spot signal intensity), Gene e” value [2, 6] was 1250, the “Raw Data (spot signal intensity), Gene f” value [2, 6] was 150 and the “Raw Data … Gene GAPDH” value ([2]; internal standard gene, Phenobal group rat liver, aRNA 400 ng, Deposition Time 5 min.) was 4095. The “Ratio (Phenobal/Control), Gene GAPDH” value ([2]; internal standard gene, rat liver, aRNA 400 ng vs 100 ng, Deposition Time 5 min. both) was 1.0, the “Ratio (Phenobal/Control), Gene a” value [2, 7] was 2.6 and the “Ratio (Phenobal/Control), Gene b” value [2, 7] was 4.1. The “Ratio (Phenobal/Control), Gene c” value [2, 7] was 0.7, the “Ratio (Phenobal/Control), Gene d” value [2, 7] was 1.6 and the “Ratio (Phenobal/Control), Gene e” value [2, 7] was 0.2. For the same molecule, the “Ratio (Phenobal/Control), Gene f” value [2, 7] was 1.6, the “Raw Data (spot signal intensity), Gene a” value [3, 8] was 650 and the “Raw Data (spot signal intensity), Gene b” value [3, 8] was 745. For the same molecule, the “Raw Data (spot signal intensity), Gene c” value [3, 8] was 255, the “Raw Data (spot signal intensity), Gene d” value [3, 8] was 2900 and the “Raw Data (spot signal intensity), Gene e” value [3, 8] was 550. The “Raw Data (spot signal intensity), Gene f” value [3, 8] was 65, the “Raw Data … Gene GAPDH” value ([3]; internal standard gene, Phenobal group rat liver, aRNA 200 ng, Deposition Time 5 min.) was 2500 and the “Ratio (Phenobal/Control), Gene GAPDH” value ([3]; internal standard gene, rat liver, aRNA 200 ng both, Deposition Time 5 min. both) was 1.0. The “Ratio (Phenobal/Control), Gene a” value [3, 9] was 1.8, the “Ratio (Phenobal/Control), Gene b” value [3, 9] was 2.6 and the “Ratio (Phenobal/Control), Gene c” value [3, 9] was 0.5. The “Ratio (Phenobal/Control), Gene d” value [3, 9] was 2.1, the “Ratio (Phenobal/Control), Gene e” value [3, 9] was 0.2 and the “Ratio (Phenobal/Control), Gene f” value [3, 9] was 1.1.
